PubChem BioAssay (NCI)
Values joined by “and” are separate entries in the source; they are usually repeats but may differ in a detail not shown here. Equal entries are not always repeated.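 Tested at 5 concentrations; 48 h exposure; 96-well plates; endpoints linearly interpolated, else capped at highest concentration. At the GI50, growth is halved. TGI denotes the concentration required for complete inhibition of growth.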

Tests used:
Assay in all cases: NCI-60 cell line screen, 48 h
HL-60(TB) leukemia = system: HL-60(TB) leukemia
HOP-92 NSCLC = system: HOP-92 NSCLC
LOX IMVI melanoma = system: LOX IMVI melanoma
NCI-H226 lung = system: NCI-H226 lung
NCI-H460 lung = system: NCI-H460 lung
SF-268 CNS = system: SF-268 CNS
SK-MEL-5 melanoma = system: SK-MEL-5 melanoma
SNB-19 CNS = system: SNB-19 CNS
SW-620 colon = system: SW-620 colon
UO-31 renal = system: UO-31 renal

| Compound | TGI (HL-60(TB) leukemia) [µM] | TGI (HOP-92 NSCLC) [µM] | TGI (LOX IMVI melanoma) [µM] | TGI (NCI-H226 lung) [µM] | TGI (NCI-H460 lung) | TGI (SF-268 CNS) [µM] | TGI (SK-MEL-5 melanoma) [µM] | TGI (SNB-19 CNS) [µM] | TGI (SW-620 colon) [µM] | TGI (UO-31 renal) [µM] | GI50 (HL-60(TB) leukemia) [µM] | GI50 (HOP-92 NSCLC) [µM] | GI50 (LOX IMVI melanoma) [µM] | GI50 (NCI-H226 lung) [µM] | GI50 (NCI-H460 lung) [µM] | GI50 (SF-268 CNS) [µM] | GI50 (SNB-19 CNS) [µM] | GI50 (SW-620 colon) [µM] | GI50 (UO-31 renal) [µM] |
| --- | --- | --- | --- | --- | --- | --- | --- | --- | --- | --- | --- | --- | --- | --- | --- | --- | --- | --- | --- |
| CN(NC(=O)c1ccco1)C1=NCCCCN1 | > 100 | > 100 | > 100 | > 100 | > 100 µM | > 100 | > 100 | > 100 | > 100 | > 100 | – | – | – | – | – | – | – | – | – |
| O=C(CCN1CCCCC1CCO)Nc1ccc2c(c1)C(=O)c1ccc(NC(=O)CCN3CCCCC3CCO)cc1C2=O (stereo unspecified) | 19 | 31 | 13.2 | 22.1 | 20.4 µM | 25.4 | 21.5 | 26.2 | 9.88 | > 100 | – | – | – | – | – | – | – | – | – |
| C[N+]1(C)C2Cc3ccccc3C1Cc1ccccc12 | > 100 | > 100 | > 100 | > 100 | > 100 µM | > 100 | > 100 | > 100 | > 100 | > 100 | – | – | – | – | – | – | – | – | – |
| CCC1(O)C=CC(=O)C=C1 | > 100 | 75.9 | 32.4 | 75.3 | > 83.2 µM | 52 | > 100 | 39.2 | > 100 | 36.7 | – | – | – | – | – | – | – | – | – |
| O=C(Cc1ccc(Cl)c(Cl)c1)NCCCN1CCN(CCCN2CCCCC2)CC1 | 37.2 | 24.8 | 30.2 | 42.4 | 33.6 µM | 50.4 | 22.1 | 63.9 | 46.7 | 3.63 | – | – | – | – | – | – | – | – | – |
| CCOC(=O)c1ccc(NC2Oc3cc4c(cc3C(c3cc(OC)c(OC)c(OC)c3)C2C)OCO4)cc1 (stereo unspecified) | 0.564 | 32.2 | 32.9 | 16 | > 100 µM | > 40.8 | 1.49 | > 100 | > 100 | 4.65 | – | – | – | – | – | – | – | – | – |
| O=c1cnn(C2OC(CO)C(O)C(F)C2O)c(=O)[nH]1 (stereo unspecified) | > 100 | > 100 | > 100 | > 100 | > 100 µM | > 100 | > 100 | > 100 | > 100 | > 100 | – | – | – | – | – | – | – | – | – |
| NC1=CN(CCCO)C2=N/C(=C\c3ccco3)C(=O)N12 | > 100 | > 100 | > 100 | > 100 | > 100 µM | > 100 | > 100 | > 100 | > 100 | > 100 | – | – | – | – | – | – | – | – | – |
| COc1ccc(-n2sc3ncc(-c4ccccc4)cc3c2=O)cc1 | > 100 | > 100 | > 100 | > 100 | > 100 µM | – | > 100 | 80.8 | > 100 | 49.7 | – | – | – | – | – | – | – | – | – |
| COc1ccc2c(c1O)-c1c(OC)c(OC)cc3c1[C@H](C2)[N+](C)(C)CC3 | > 100 | > 100 | > 100 | > 100 | > 100 µM | > 100 | > 100 | > 100 | > 100 | > 100 | – | – | – | – | – | – | – | – | – |
| O=C(CCSC(CC(=O)c1ccc(Cl)cc1)c1ccc(Cl)cc1)Nc1ccc(Cl)cc1 (stereo unspecified) | 20.4 | 32.9 | 18.3 | 41.5 | 28.6 µM | 29 | 29.4 | 26.6 | 10.5 | 26.9 | – | – | – | – | – | – | – | – | – |
| COc1c2nc(CCl)n(C)c(=O)c2c(OC)c2c(=O)n(C)c(CCl)nc12 | 2.47 | > 100 | 1.75 | 13.7 | 4.66 µM | 4.52 | 4.96 | 5.07 | 2.6 | 2.49 | – | – | – | – | – | – | – | – | – |
| N#Cc1[nH]c(=O)n(-c2ccc([N+](=O)[O-])cc2)c1N | > 10 | > 10 | > 10 | > 10 | > 10 µM | > 10 | > 10 | > 10 | > 10 | > 10 | – | – | – | – | – | – | – | – | – |
| C=C1CC2CC[C@@]34C[C@@H]5O[C@@H]6C(O[C@H]7CC[C@H](CC(=O)OC8[C@@H](C)C9OC%10C[C@]%11(C[C@@H]%12O[C@@]%13(C[C@@H](C)[C@@H]%12O%11)C[C@H](C)[C@@H]%11OC%12CC(C(O)CO)OC%12C[C@@H]%11O%13)OC%10CC9O[C@H]8C[C@H]8O[C@@H](CC[C@@H]1O2)C[C@@H](C)C8=C)O[C@@H]7[C@@H]6O3)C5O4 (stereo partly specified) | – | > 1.48 | 0.394 | – | 0.00317 µM and 0.028 µM | > 1.48 | 0.00591 | 0.0127 | > 1.48 | > 1.48 | < 0.000148 | < 0.000148 | < 0.000148 | < 0.000148 | < 0.000148 | < 0.000148 | < 0.000148 | < 0.000148 | 0.505 |
| CCOn1cc(C[C@@]2(O)C(=O)OC3[C@@H](O)CO[C@@]32O)c2ccccc21 (stereo partly specified) | > 100 | > 100 | > 100 | > 100 | > 100 µM | > 100 | > 100 | > 100 | > 100 | > 100 | – | – | – | – | – | – | – | – | – |
| Nc1c(Br)cc(-c2cc(Br)c(N)c(Br)c2)cc1Br | > 100 | > 100 | > 100 | > 100 | > 100 µM | > 100 | > 100 | > 100 | > 100 | > 100 | – | – | – | – | – | – | – | – | – |
| COC1/C=C\C=C(/C)C(=O)NC2=CC(=O)C(NCCCl)=C(CC(C)CC(OC)C(O)C(C)/C=C(/C)C1OC(N)=O)C2=O (stereo unspecified) | 3.23 | 18.6 | 0.575 | 8.62 | 2.52 µM | 14 | 3.11 | 13.6 | 2.55 | 10.6 | – | – | – | – | – | – | – | – | – |
